Reference: the NIST ThermoML archive (doi:10.1016/j.jct.2015.12.005)
± gives the expanded uncertainty stated by the source.

Tests used:
[1] = Molar enthalpy of transition or fusion; conditions: Adiabatic calorimetry
[2] = molar heat capacity at saturation pressure

c1ccc2c(c1)CCC2 [indane]
[1]
Conditions | Molar enthalpy of transition or fusion [kcal/mol]
Crystal 1 | 2.044 ± 0.00263
Crystal 2 | 0.0363 ± 0.00043

molar heat capacity [J/K/mol], [2]
Conditions | Crystal 1, Vacuum adiabatic calorimetry | Crystal 2, Vacuum adiabatic calorimetry
5 K | – | 0.291 ± 0.017
5.31 K | – | 0.3492 ± 0.017
6.26 K | – | 0.6236 ± 0.025
7.189 K | – | 0.9811 ± 0.033
8.165 K | – | 1.463 ± 0.05
9.174 K | – | 2.12 ± 0.067
10 K | – | 2.735 ± 0.033
10.22 K | – | 2.918 ± 0.025
11.36 K | – | 3.891 ± 0.033
12.63 K | – | 5.097 ± 0.042
14.04 K | – | 6.61 ± 0.05
15.6 K | – | 8.364 ± 0.067
17.35 K | – | 10.43 ± 0.075
19.29 K | – | 12.76 ± 0.091
20 K | – | 13.61 ± 0.091
21.45 K | – | 15.35 ± 0.1
23.86 K | – | 18.19 ± 0.12
26.55 K | – | 21.27 ± 0.12
29.53 K | – | 24.47 ± 0.14
30 K | – | 24.96 ± 0.14
32.82 K | – | 27.82 ± 0.075
36.45 K | – | 31.27 ± 0.083
40 K | – | 34.44 ± 0.083
40.47 K | – | 34.84 ± 0.083
44.94 K | – | 38.64 ± 0.091
49.87 K | – | 42.67 ± 0.1
50 K | – | 42.77 ± 0.1
52.71 K | – | 44.96 ± 0.1
55.33 K | – | 47.14 ± 0.11
57.68 K | – | 49.16 ± 0.11
60 K | – | 51.24 ± 0.12
62 K | – | 53.22 ± 0.12
62.18 K | – | 53.45 ± 0.12
62.48 K | – | 53.74 ± 0.12
63.41 K | – | 54.75 ± 0.12
64 K | – | 55.47 ± 0.12
66 K | – | 57.83 ± 0.12
67.11 K | – | 59.51 ± 0.12
68 K | – | 60.76 ± 0.13
70 K | – | 64.04 ± 0.14
70.7 K | – | 67.01 ± 0.14
70.76 K | – | 67.17 ± 0.14
72 K | – | 67.68 ± 0.15
72.08 K | – | 72.89 ± 0.17
72.27 K | – | 74.46 ± 0.17
72.75 K | – | 77.96 ± 0.18
73.08 K | – | 82.15 ± 0.25
73.38 K | – | 89.8 ± 0.33
73.83 K | 57.49 ± 0.12 | 71.43 ± 0.15
74 K | 57.55 ± 0.12 | –
74.14 K | 63.18 ± 0.16 | –
74.52 K | 59.93 ± 0.14 | –
74.89 K | 59.45 ± 0.12 | –
76 K | 58.28 ± 0.12 | –
76.02 K | 59.19 ± 0.12 | –
77.68 K | 59.3 ± 0.12 | –
78 K | 59.01 ± 0.12 | –
79.98 K | 59.88 ± 0.12 | –
80 K | 59.74 ± 0.12 | –
82.01 K | 60.53 ± 0.13 | –
82.05 K | 60.55 ± 0.13 | –
82.97 K | 60.84 ± 0.13 | –
83.17 K | 60.91 ± 0.13 | –
90 K | 63.39 ± 0.21 | –
91.46 K | 63.9 ± 0.21 | –
100 K | 67.07 ± 0.21 | –
100.48 K | 67.26 ± 0.21 | –
110.07 K | 70.8 ± 0.21 | –
119.85 K | 74.38 ± 0.22 | –
120 K | 74.45 ± 0.22 | –
129.73 K | 78.16 ± 0.22 | –
138.66 K | 81.54 ± 0.22 | –
139.61 K | 81.94 ± 0.22 | –
140 K | 82.06 ± 0.22 | –
148.52 K | 85.42 ± 0.22 | –
158.5 K | 89.5 ± 0.22 | –
160 K | 90.14 ± 0.22 | –
168.63 K | 93.87 ± 0.22 | –
178.81 K | 98.43 ± 0.23 | –
180 K | 99 ± 0.23 | –
184.22 K | 100.9 ± 0.23 | –
189.01 K | 103.32 ± 0.24 | –
194.75 K | 106.22 ± 0.24 | –
199.29 K | 108.5 ± 0.24 | –
200 K | 108.89 ± 0.24 | –
205.19 K | 111.62 ± 0.25 | –
209.54 K | 113.96 ± 0.25 | –
212.42 K | 115.59 ± 0.25 | –
214.32 K | 116.35 ± 0.25 | –
220 K | 119.51 ± 0.26 | –
221.79 K | 120.47 ± 0.26 | –

[2], Liquid
Conditions | molar heat capacity [J/K/mol]
221.79 K, Vacuum adiabatic calorimetry | 163.91 ± 0.31
228.22 K, Vacuum adiabatic calorimetry | 165.72 ± 0.31
228.34 K, Vacuum adiabatic calorimetry | 165.76 ± 0.31
229.69 K, Vacuum adiabatic calorimetry | 166.13 ± 0.31
229.78 K, Vacuum adiabatic calorimetry | 166.24 ± 0.31
230 K, Vacuum adiabatic calorimetry | 166.22 ± 0.31
236.45 K, Vacuum adiabatic calorimetry | 168.04 ± 0.31
238.81 K, Vacuum adiabatic calorimetry | 168.76 ± 0.31
240 K, Vacuum adiabatic calorimetry | 169.13 ± 0.31
250 K, Vacuum adiabatic calorimetry | 172.31 ± 0.32
250.13 K, Vacuum adiabatic calorimetry | 172.35 ± 0.32
260 K, Vacuum adiabatic calorimetry | 175.75 ± 0.32
262.1 K, Vacuum adiabatic calorimetry | 176.48 ± 0.32
262.28 K, Vacuum adiabatic calorimetry | 176.54 ± 0.32
270 K, Vacuum adiabatic calorimetry | 179.48 ± 0.32
274.49 K, Vacuum adiabatic calorimetry | 181.2 ± 0.32
275.32 K, Vacuum adiabatic calorimetry | 181.5 ± 0.32
280 K, Vacuum adiabatic calorimetry | 183.04 ± 0.32
286.77 K, Vacuum adiabatic calorimetry | 185.35 ± 0.33
288.6 K, Vacuum adiabatic calorimetry | 185.93 ± 0.33
290 K, Vacuum adiabatic calorimetry | 186.46 ± 0.33
297.89 K, Vacuum adiabatic calorimetry | 189.38 ± 0.33
298.15 K, Vacuum adiabatic calorimetry | 189.48 ± 0.33
299.11 K, Vacuum adiabatic calorimetry | 189.82 ± 0.33
300 K, Vacuum adiabatic calorimetry | 190.18 ± 0.33
301.9 K, Vacuum adiabatic calorimetry | 190.91 ± 0.33
310 K, Vacuum adiabatic calorimetry | 194.12 ± 0.34
310.2 K, Vacuum adiabatic calorimetry | 194.19 ± 0.34
311.46 K, Vacuum adiabatic calorimetry | 194.67 ± 0.34
320 K, Vacuum adiabatic calorimetry | 198.07 ± 0.34
322.46 K, Vacuum adiabatic calorimetry | 199.08 ± 0.35
330 K, Vacuum adiabatic calorimetry | 202.15 ± 0.35
333.38 K, Vacuum adiabatic calorimetry | 203.54 ± 0.35
334.63 K, Vacuum adiabatic calorimetry | 204.04 ± 0.35
340 K, Vacuum adiabatic calorimetry | 206.3 ± 0.36
347.49 K, Vacuum adiabatic calorimetry | 209.45 ± 0.36
350 K, Vacuum adiabatic calorimetry | 210.48 ± 0.36
360 K, Vacuum adiabatic calorimetry | 214.61 ± 0.37
360.87 K, Vacuum adiabatic calorimetry | 214.96 ± 0.37
370 K, Vacuum adiabatic calorimetry | 218.8 ± 0.37
374.71 K, Vacuum adiabatic calorimetry | 220.8 ± 0.37
380 K, Vacuum adiabatic calorimetry | 223.03 ± 0.37
388.61 K, Vacuum adiabatic calorimetry | 226.66 ± 0.37
390 K, Vacuum adiabatic calorimetry | 227.25 ± 0.37
400 K, Vacuum adiabatic calorimetry | 231.47 ± 0.38
402.42 K, Vacuum adiabatic calorimetry | 232.49 ± 0.38
409.24 K, Vacuum adiabatic calorimetry | 235.36 ± 0.39
410 K, Vacuum adiabatic calorimetry | 235.68 ± 0.39
415.99 K, Vacuum adiabatic calorimetry | 238.21 ± 0.39
420 K, Vacuum adiabatic calorimetry | 239.88 ± 0.39
426.54 K, Vacuum adiabatic calorimetry | 242.6 ± 0.4
428.9 K, Vacuum adiabatic calorimetry | 243.53 ± 0.4
430 K, Vacuum adiabatic calorimetry | 244.05 ± 0.4
439.86 K, Vacuum adiabatic calorimetry | 248.28 ± 0.4
440 K, Vacuum adiabatic calorimetry | 248.4 ± 0.4
450 K, Small sample (50 mg) DSC | 253.17 ± 3.9
460 K, Small sample (50 mg) DSC | 258.04 ± 4
470 K, Small sample (50 mg) DSC | 262.7 ± 4.1
480 K, Small sample (50 mg) DSC | 267.2 ± 4.1
490 K, Small sample (50 mg) DSC | 271.71 ± 4.2
500 K, Small sample (50 mg) DSC | 276.21 ± 4.3
510 K, Small sample (50 mg) DSC | 280.72 ± 4.3
520 K, Small sample (50 mg) DSC | 285.23 ± 4.4
530 K, Small sample (50 mg) DSC | 289.72 ± 4.5
540 K, Small sample (50 mg) DSC | 294.22 ± 4.6
550 K, Small sample (50 mg) DSC | 298.7 ± 4.7
560 K, Small sample (50 mg) DSC | 303.18 ± 4.9
570 K, Small sample (50 mg) DSC | 307.65 ± 5
580 K, Small sample (50 mg) DSC | 312.12 ± 5.2
590 K, Small sample (50 mg) DSC | 316.59 ± 5.4
600 K, Small sample (50 mg) DSC | 321.05 ± 5.6
